Measured values from ChEMBL document CHEMBL1201862, “PubChem BioAssay data set” (2004).
Active and inactive are the calls of the source.

Columns and labels:
Type in all cases: functional
[1] = molecular target: T1, Tyrosine-protein kinase ITK/TSK (Homo sapiens, UniProt Q08881);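 note: affinity for ITK measured as one member of a broad kinase panel profiling binding across the kinome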
T1 sequence (Q08881 whole entry): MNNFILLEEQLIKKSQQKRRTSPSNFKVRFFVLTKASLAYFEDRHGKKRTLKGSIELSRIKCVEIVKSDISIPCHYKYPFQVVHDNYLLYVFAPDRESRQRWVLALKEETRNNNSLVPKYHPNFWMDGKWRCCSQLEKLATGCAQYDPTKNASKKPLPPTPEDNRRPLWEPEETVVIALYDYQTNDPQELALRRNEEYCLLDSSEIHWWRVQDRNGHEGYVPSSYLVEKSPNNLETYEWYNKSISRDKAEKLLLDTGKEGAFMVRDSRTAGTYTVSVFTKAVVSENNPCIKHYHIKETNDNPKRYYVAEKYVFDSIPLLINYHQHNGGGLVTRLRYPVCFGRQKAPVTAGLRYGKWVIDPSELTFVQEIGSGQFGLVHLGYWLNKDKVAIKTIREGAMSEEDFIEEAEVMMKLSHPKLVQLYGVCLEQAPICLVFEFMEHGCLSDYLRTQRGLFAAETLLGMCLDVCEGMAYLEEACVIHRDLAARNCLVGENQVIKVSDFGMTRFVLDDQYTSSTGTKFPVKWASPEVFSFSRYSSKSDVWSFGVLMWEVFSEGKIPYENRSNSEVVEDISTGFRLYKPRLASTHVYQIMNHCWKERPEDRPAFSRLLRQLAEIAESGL

[2] = molecular target: T2, Serine/threonine-protein kinase PLK4 (Homo sapiens, UniProt O00444);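 note: PLK4 measured as one member of a kinome-wide kinase profiling panel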
T2 sequence (O00444 whole entry): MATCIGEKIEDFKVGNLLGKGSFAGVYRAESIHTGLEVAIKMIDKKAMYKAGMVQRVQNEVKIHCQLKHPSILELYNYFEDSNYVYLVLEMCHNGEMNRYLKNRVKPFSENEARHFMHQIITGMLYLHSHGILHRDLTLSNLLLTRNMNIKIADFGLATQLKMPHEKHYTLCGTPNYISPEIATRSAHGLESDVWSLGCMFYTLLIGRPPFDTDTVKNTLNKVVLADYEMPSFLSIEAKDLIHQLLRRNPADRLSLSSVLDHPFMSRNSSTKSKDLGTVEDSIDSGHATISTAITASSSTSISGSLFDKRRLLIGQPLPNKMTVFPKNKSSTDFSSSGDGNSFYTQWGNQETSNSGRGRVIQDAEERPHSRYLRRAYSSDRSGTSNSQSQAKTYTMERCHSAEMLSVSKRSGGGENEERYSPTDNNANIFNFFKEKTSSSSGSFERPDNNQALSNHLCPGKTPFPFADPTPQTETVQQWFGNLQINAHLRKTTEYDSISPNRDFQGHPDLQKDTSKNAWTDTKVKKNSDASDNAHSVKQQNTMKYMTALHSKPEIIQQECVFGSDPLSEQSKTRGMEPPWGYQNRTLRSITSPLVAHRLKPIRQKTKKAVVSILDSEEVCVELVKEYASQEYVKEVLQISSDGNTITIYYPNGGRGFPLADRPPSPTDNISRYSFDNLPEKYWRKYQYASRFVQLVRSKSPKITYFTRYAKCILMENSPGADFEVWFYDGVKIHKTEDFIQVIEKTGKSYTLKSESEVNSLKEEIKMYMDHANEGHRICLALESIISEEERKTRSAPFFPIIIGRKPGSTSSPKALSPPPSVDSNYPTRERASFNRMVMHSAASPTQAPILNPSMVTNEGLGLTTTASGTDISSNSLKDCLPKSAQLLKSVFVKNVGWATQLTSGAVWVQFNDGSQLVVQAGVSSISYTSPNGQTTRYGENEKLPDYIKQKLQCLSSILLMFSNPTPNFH

[3] = molecular target: High affinity nerve growth factor receptor (Homo sapiens, UniProt P04629);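 note: NTRK1 tested as one member of a kinome-wide profiling panel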
Chain of High affinity nerve growth factor receptor (P04629 whole entry): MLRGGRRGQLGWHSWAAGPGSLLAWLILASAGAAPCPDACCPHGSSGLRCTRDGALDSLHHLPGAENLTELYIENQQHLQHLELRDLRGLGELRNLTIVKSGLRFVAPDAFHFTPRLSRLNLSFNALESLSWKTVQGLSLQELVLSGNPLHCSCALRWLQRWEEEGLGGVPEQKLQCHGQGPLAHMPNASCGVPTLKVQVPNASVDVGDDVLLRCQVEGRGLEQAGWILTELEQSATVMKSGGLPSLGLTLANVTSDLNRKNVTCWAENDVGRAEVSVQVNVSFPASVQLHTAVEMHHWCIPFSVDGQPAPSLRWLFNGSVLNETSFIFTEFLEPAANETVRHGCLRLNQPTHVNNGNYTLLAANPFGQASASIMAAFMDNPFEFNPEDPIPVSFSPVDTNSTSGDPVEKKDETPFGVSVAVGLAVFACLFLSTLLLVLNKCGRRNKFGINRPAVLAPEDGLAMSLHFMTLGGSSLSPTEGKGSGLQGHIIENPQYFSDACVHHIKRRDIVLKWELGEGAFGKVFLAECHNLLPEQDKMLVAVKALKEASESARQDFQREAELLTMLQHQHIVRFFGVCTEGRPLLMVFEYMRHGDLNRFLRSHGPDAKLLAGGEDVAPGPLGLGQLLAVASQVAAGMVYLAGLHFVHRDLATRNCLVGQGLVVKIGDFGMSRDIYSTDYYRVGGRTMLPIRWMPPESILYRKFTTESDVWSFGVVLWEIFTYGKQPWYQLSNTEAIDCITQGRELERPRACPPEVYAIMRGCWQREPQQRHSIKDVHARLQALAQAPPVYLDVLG

[4] = molecular target: T3, Serine/threonine-protein kinase 17A (Homo sapiens, UniProt Q9UEE5)
T3 sequence (Q9UEE5 whole entry): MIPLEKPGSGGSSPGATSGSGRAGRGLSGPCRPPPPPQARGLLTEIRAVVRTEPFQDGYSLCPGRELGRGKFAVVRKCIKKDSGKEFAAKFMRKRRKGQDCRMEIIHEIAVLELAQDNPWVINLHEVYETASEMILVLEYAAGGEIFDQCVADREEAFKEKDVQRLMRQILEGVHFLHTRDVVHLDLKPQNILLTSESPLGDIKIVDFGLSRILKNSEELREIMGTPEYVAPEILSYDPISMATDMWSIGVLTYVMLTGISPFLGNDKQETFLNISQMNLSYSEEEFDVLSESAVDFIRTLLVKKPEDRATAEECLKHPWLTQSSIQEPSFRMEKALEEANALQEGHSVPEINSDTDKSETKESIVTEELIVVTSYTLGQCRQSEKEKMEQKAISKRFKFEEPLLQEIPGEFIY

[5] = molecular target: Lymphokine-activated killer T-cell-originated protein kinase (Homo sapiens, UniProt Q96KB5);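 note: value comes from a kinase panel screen in which TOPK was one of the panel members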
Chain of Lymphokine-activated killer T-cell-originated protein kinase (Q96KB5 whole entry): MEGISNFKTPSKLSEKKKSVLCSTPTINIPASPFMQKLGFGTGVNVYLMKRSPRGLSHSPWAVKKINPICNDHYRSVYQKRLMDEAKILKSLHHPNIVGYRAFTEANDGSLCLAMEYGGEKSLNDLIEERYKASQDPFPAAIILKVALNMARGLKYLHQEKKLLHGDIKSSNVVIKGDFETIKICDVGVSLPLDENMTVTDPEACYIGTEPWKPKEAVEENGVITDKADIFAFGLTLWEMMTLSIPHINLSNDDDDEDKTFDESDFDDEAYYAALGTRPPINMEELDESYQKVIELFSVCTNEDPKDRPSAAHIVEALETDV

[6] = molecular target: RAC-gamma serine/threonine-protein kinase (Homo sapiens, UniProt Q9Y243)
Chain of RAC-gamma serine/threonine-protein kinase (Q9Y243 whole entry): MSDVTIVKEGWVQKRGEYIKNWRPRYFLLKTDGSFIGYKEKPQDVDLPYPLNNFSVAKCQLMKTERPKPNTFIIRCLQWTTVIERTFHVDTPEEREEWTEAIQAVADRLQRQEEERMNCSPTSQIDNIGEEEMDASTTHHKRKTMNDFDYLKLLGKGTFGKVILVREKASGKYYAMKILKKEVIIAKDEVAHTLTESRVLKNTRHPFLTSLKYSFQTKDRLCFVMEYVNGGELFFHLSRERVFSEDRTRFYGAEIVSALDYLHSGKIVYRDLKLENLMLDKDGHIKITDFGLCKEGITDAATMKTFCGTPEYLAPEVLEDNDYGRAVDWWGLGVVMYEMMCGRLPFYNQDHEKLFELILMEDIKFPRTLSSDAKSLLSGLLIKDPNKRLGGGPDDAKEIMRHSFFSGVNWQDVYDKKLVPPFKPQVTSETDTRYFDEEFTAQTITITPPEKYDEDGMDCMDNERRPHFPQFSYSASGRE

[7] = molecular target: Testis-specific serine/threonine-protein kinase 2 (Homo sapiens, UniProt Q96PF2);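 note: part of the Navigating the Kinome panel, target entry STK22B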
Chain of Testis-specific serine/threonine-protein kinase 2 (Q96PF2 whole entry): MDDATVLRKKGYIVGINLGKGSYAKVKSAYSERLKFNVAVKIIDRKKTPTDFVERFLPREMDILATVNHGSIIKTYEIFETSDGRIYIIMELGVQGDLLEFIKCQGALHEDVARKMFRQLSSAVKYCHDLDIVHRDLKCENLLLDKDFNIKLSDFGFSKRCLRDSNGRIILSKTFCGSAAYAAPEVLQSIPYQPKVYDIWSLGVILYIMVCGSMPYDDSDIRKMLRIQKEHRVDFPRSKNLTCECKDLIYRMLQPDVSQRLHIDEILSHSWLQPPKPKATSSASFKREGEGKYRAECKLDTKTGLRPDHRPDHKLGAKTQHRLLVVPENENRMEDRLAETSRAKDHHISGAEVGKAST

[8] = molecular target: Tyrosine-protein kinase ABL1 (Homo sapiens, UniProt P00519)
[9] = molecular target: Tyrosine-protein kinase Fyn (Homo sapiens, UniProt P06241)
Chain of Tyrosine-protein kinase Fyn (P06241 whole entry): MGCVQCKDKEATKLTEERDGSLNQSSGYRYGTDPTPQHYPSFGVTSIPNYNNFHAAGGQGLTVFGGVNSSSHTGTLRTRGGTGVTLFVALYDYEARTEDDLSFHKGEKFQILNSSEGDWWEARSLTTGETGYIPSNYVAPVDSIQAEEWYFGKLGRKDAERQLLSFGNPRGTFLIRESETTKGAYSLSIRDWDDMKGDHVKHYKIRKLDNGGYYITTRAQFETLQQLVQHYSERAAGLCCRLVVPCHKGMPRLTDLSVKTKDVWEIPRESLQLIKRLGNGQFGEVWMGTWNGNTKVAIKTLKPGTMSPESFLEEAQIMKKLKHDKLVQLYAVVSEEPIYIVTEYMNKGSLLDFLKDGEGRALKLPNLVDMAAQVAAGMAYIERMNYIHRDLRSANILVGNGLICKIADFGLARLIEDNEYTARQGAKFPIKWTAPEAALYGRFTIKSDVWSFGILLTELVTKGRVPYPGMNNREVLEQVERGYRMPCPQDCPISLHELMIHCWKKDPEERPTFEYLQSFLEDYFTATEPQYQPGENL

[10] = molecular target: Calcium/calmodulin-dependent protein kinase type II subunit delta (Homo sapiens, UniProt Q13557)
Chain of Calcium/calmodulin-dependent protein kinase type II subunit delta (Q13557 whole entry): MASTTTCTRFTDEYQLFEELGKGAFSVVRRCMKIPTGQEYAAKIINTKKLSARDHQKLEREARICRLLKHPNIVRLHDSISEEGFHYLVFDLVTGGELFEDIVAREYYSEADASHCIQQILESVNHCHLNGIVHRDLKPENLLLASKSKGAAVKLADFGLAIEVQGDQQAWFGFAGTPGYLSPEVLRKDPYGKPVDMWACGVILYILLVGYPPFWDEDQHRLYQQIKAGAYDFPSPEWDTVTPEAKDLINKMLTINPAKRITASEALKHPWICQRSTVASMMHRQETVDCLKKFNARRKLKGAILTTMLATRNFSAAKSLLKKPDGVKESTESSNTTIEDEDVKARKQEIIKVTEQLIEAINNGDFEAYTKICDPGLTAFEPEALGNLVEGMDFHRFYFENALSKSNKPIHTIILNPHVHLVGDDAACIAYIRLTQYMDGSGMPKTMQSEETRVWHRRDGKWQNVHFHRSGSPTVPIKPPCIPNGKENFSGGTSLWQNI

[11] = molecular target: Receptor tyrosine-protein kinase erbB-2 (Homo sapiens, UniProt P04626); assay: Navigating the Kinome. Panel member name: ERBB2
Chain of Receptor tyrosine-protein kinase erbB-2 (P04626 whole entry): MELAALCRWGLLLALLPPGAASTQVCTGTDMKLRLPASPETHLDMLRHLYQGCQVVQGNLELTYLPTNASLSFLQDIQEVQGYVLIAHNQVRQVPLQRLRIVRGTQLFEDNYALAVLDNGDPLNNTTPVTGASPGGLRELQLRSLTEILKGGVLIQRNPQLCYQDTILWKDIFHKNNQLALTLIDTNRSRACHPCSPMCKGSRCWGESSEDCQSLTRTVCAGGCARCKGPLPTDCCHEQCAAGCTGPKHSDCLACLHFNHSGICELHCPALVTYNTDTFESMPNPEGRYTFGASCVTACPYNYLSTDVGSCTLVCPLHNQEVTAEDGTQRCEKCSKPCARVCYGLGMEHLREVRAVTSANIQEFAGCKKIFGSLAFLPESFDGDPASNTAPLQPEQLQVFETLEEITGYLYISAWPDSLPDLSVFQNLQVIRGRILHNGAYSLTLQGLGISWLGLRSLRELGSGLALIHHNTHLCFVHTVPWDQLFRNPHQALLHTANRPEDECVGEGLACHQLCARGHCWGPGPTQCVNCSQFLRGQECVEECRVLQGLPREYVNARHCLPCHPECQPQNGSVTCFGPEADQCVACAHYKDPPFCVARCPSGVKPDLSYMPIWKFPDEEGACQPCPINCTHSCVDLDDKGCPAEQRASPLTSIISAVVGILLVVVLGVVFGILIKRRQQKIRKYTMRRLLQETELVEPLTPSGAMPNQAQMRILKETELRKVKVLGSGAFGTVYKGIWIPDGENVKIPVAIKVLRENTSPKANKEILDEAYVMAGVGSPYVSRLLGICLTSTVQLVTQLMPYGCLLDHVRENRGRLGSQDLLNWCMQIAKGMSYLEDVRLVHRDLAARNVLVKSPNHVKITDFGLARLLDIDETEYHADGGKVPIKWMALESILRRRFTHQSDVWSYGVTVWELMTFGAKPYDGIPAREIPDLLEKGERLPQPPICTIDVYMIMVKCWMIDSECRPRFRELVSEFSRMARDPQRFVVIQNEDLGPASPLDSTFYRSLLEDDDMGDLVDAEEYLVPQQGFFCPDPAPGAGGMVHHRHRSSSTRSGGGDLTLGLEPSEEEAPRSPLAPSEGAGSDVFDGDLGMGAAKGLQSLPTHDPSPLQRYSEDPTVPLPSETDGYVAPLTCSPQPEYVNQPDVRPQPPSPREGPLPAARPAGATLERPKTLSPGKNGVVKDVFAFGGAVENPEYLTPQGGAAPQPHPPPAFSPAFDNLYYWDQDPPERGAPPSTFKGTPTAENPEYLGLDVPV

[12] = molecular target: Protein kinase C gamma type (Homo sapiens, UniProt P05129)

Ki [1]	Ki [2]	pKi [2]	Ki [3]	Ki [4]	pKi [4]	Ki [6]	pKi [6]	Ki [7]	Ki [8]	Ki [9]	Ki [10]	Ki [11]	Ki [12]	pKi [12]	Structure (SMILES)	Ki [5]
> 1580 nM (inactive)	501 nM (active)	6.3	> 2510 nM (inactive)	25.1 nM (active)	7.6	6310 nM (active)	5.2	> 1580 nM (inactive)	> 631 nM (inactive)	> 794 nM (inactive)	> 3160 nM (inactive)	> 1580 nM (inactive)	251 nM (active)	6.6	NC(=O)c1cc(-c2ccnc(N)n2)[nH]c1-c1ccc(Cl)cc1Cl	3160 nM (active)
1260 nM (active)	200 nM (active)	–	79.4 nM (active)	15.8 nM (active)	–	5.01 nM (active)	–	794 nM (active)	> 631 nM (inactive)	398 nM (active)	15.8 nM (active)	1000 nM (active)	31.6 nM (active)	–	NC(COc1cncc(-c2ccc3c(c2)C(=Cc2ccco2)C(=O)N3)c1)Cc1c[nH]c2ccccc12 (stereo not given)	501 nM (active)

Structure (SMILES)	Ki [1]	Ki [2]	pKi [2]	Ki [3]	Ki [4]	pKi [4]	Ki [6]	pKi [6]	Ki [7]	Ki [8]	Ki [9]	Ki [10]	Ki [11]	Ki [12]	pKi [12]	Ki [5]
Cc1ccc(-n2nc(C(C)(C)C)cc2NC(=O)Nc2ccc(OCCN3CCOCC3)c3ccccc23)cc1 [DORAMAPIMOD]	> 1580 nM (inactive)	> 3980 nM (inactive)	–	–	–	–	–	–	–	–	–	–	–	–	–	–
